Measurements published in PubChem BioAssay AID248 (DTP/NCI, 2004).
Values joined by “and” are separate entries in the source; they are usually repeats but may differ in a detail not shown here. Equal values may be shown once. Toxic doses and inconclusive results are not listed. Rule as the data show it: active = T/C of 150% or more; inactive = T/C below 125%.

Tested on: L1210 leukemia ip in BDF1 mice, survival T/C
Test: NCI In Vivo Anticancer Drug Screen. Data for tumor model L1210 Leukemia (intraperitoneal) in B6D2F1 (BDF1) mice
Conditions: endpoint: mean survival time, higher = longer survival
Method in brief: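 Tumor cells were implanted, animals were treated, and survival was followed. The result divides the treated measurement by the vehicle-control measurement.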

[1] = dose: 100.0 mg/kg/injection, schedule: Q01DX005 (ip), vehicle: Klucel (hydroxypropylcellulose) (HPC)
[2] = dose: 100.0 mg/kg/injection, schedule: Q01DX009 (ip), vehicle: Klucel (hydroxypropylcellulose) (HPC)
[3] = dose: 100.0 mg/kg/injection, schedule: Q04DX002 (ip), vehicle: Klucel (hydroxypropylcellulose) (HPC)
[4] = dose: 100.0 mg/kg/injection, schedule: Q04DX003 (ip), vehicle: Klucel (hydroxypropylcellulose) (HPC)
[5] = dose: 200.0 mg/kg/injection, schedule: Q01DX005 (ip), vehicle: Klucel (hydroxypropylcellulose) (HPC)
[6] = dose: 200.0 mg/kg/injection, schedule: Q01DX009 (ip), vehicle: Klucel (hydroxypropylcellulose) (HPC)
[7] = dose: 200.0 mg/kg/injection, schedule: Q04DX002 (ip), vehicle: Klucel (hydroxypropylcellulose) (HPC)
[8] = dose: 200.0 mg/kg/injection, schedule: Q04DX003 (ip), vehicle: Klucel (hydroxypropylcellulose) (HPC)
[9] = dose: 400.0 mg/kg/injection, schedule: Q01DX005 (ip), vehicle: Klucel (hydroxypropylcellulose) (HPC)
[10] = dose: 400.0 mg/kg/injection, schedule: Q01DX009 (ip), vehicle: Klucel (hydroxypropylcellulose) (HPC)
[11] = dose: 400.0 mg/kg/injection, schedule: Q04DX003 (ip), vehicle: Klucel (hydroxypropylcellulose) (HPC)
[12] = dose: 12.5 mg/kg/injection, schedule: Q01DX009 (ip), vehicle: Klucel (hydroxypropylcellulose) (HPC)
[13] = dose: 25.0 mg/kg/injection, schedule: Q01DX009 (ip), vehicle: Klucel (hydroxypropylcellulose) (HPC)
[14] = dose: 50.0 mg/kg/injection, schedule: Q01DX009 (ip), vehicle: Klucel (hydroxypropylcellulose) (HPC)
[15] = dose: 50.0 mg/kg/injection, schedule: Q01DX001 (ip), vehicle: saline
[16] = dose: 100.0 mg/kg/injection, schedule: Q01DX001 (ip), vehicle: saline
[17] = dose: 200.0 mg/kg/injection, schedule: Q01DX001 (ip), vehicle: saline
[18] = dose: 400.0 mg/kg/injection, schedule: Q01DX001 (ip), vehicle: saline

Measured: T/C

O=C(O)c1ccccc1CBr
inactive: [1] 97 % of control | [2] 97 % of control | [3] 96 % of control | [4] 93 % of control | [5] 105 % of control | [6] 97 % of control | [7] 100 % of control | [8] 93 % of control | [9] 101 % of control | [10] 97 % of control | dose: 400.0 mg/kg/injection, schedule: Q04DX002 (ip), vehicle: Klucel (hydroxypropylcellulose) (HPC) 93 % of control | [11] 105 % of control

CSC(=O)C(C)(C)C
inactive: dose: 75.0 mg/kg/injection, schedule: Q01DX001 (ip), vehicle: saline 103 % of control | dose: 150.0 mg/kg/injection, schedule: Q01DX001 (ip), vehicle: saline 97 % of control

CC(C)c1ccccc1NC1=NCCO1
inactive: [12] 86 % of control | [13] 89 % of control | dose: 25.0 mg/kg/injection, schedule: Q04DX002 (ip), vehicle: saline with Tween-80 101 % of control | [14] 96 % of control and 89 % of control | dose: 50.0 mg/kg/injection, schedule: Q04DX002 (ip), vehicle: saline with Tween-80 96 % of control | dose: 100.0 mg/kg/injection, schedule: Q04DX002 (ip), vehicle: saline with Tween-80 86 % of control | dose: 200.0 mg/kg/injection, schedule: Q04DX002 (ip), vehicle: saline with Tween-80 86 % of control

OC(c1ccc(C2CC2)cc1)(c1ccc(C2CC2)cc1)c1ccc(C2CC2)cc1
inactive: dose: 100.0 mg/kg/injection, schedule: Q04DX003 (ip), vehicle: saline with Tween-80 104 % of control | dose: 200.0 mg/kg/injection, schedule: Q04DX003 (ip), vehicle: saline with Tween-80 102 % of control | dose: 400.0 mg/kg/injection, schedule: Q04DX003 (ip), vehicle: saline with Tween-80 91 % of control

CN1C(=O)C(Br)=C(Br)C1(O)c1cccnc1 (centres undefined)
inactive: [15] 104 % of control | [16] 104 % of control | [17] 95 % of control | [18] 98 % of control

COC(=O)C1=CC=CC1
inactive: [1] 103 % of control | [2] 104 % of control | [5] 98 % of control | [6] 104 % of control | [9] 95 % of control | [10] 93 % of control

CCCCOCCOCCOc1ccc(C(=O)OC)cc1
inactive: dose: 100.0 mg/kg/injection, schedule: Q01DX001 (ip), vehicle: saline sonified 103 % of control | dose: 200.0 mg/kg/injection, schedule: Q01DX001 (ip), vehicle: saline sonified 96 % of control | dose: 400.0 mg/kg/injection, schedule: Q01DX001 (ip), vehicle: saline sonified 100 % of control

COC(=O)c1cc(/C=C/c2ccccc2)ccc1[N+](=O)[O-]
inactive: dose: 50.0 mg/kg/injection, schedule: Q04DX003 (ip), vehicle: alcohol 90 % of control | dose: 100.0 mg/kg/injection, schedule: Q04DX003 (ip), vehicle: alcohol 101 % of control | dose: 200.0 mg/kg/injection, schedule: Q04DX003 (ip), vehicle: alcohol 104 % of control

CCOC(=O)c1c(O)cc(C)[nH]c1=O
inactive: [15] 102 % of control | [16] 96 % of control | [17] 104 % of control | [18] 104 % of control

CCCC(=O)N1C(C)CCCC1C (centres undefined)
inactive: dose: 100.0 mg/kg/injection, schedule: Q04DX002 (ip), vehicle: saline 117 % of control | dose: 200.0 mg/kg/injection, schedule: Q04DX002 (ip), vehicle: saline 101 % of control | dose: 400.0 mg/kg/injection, schedule: Q04DX002 (ip), vehicle: saline 93 % of control

Cc1ccc(C(=O)N2CCCCC2)c[n+]1C
inactive: [16] 104 % of control | [17] 100 % of control | [18] 105 % of control

Cc1cccc(C)c1NC(=O)Nc1ccc(CCO)cc1
inactive: [2] 97 % of control | [6] 98 % of control

NNC(=O)C(CSC(c1ccccc1)c1ccccc1)NC(=O)C(CSC(c1ccccc1)(c1ccccc1)c1ccccc1)NC(=O)OCc1ccccc1 (centres undefined)
inactive: [2] 97 % of control | [6] 97 % of control | [10] 94 % of control

CC(C)(C)CC(C)(C)c1ccc(OCCOC(=O)c2ccccc2C(=O)O)cc1
inactive: [13] 97 % of control | [14] 105 % of control | [2] 94 % of control

CC(=O)CC(=O)N1CCCCC1C (centres undefined)
inactive: [4] 104 % of control | [8] 101 % of control | [11] 97 % of control

O=CNC1CCCCC1
inactive: dose: 20.0 mg/kg/injection, schedule: Q01DX009 (ip), vehicle: saline with Tween-80 93 % of control | dose: 40.0 mg/kg/injection, schedule: Q01DX001 (ip), vehicle: saline with Tween-80 100 % of control | dose: 40.0 mg/kg/injection, schedule: Q01DX009 (ip), vehicle: saline with Tween-80 93 % of control | dose: 80.0 mg/kg/injection, schedule: Q01DX001 (ip), vehicle: saline with Tween-80 100 % of control | dose: 80.0 mg/kg/injection, schedule: Q01DX009 (ip), vehicle: saline with Tween-80 91 % of control

COc1ccc(OC)c(NC(=O)Nc2cc(OC)ccc2OC)c1
inactive: dose: 100.0 mg/kg/injection, schedule: Q01DX009 (ip), vehicle: saline with Tween-80 106 % of control | dose: 200.0 mg/kg/injection, schedule: Q01DX009 (ip), vehicle: saline with Tween-80 97 % of control | dose: 400.0 mg/kg/injection, schedule: Q01DX009 (ip), vehicle: saline with Tween-80 94 % of control

CC[n+]1ccccc1CCC(=O)Nc1ccccc1
inactive: dose: 25.0 mg/kg/injection, schedule: Q04DX003 (ip), vehicle: saline 97 % of control | dose: 50.0 mg/kg/injection, schedule: Q04DX003 (ip), vehicle: saline 92 % of control | dose: 100.0 mg/kg/injection, schedule: Q04DX003 (ip), vehicle: saline 95 % of control

c1ccc(P(CCP(c2ccccc2)c2ccccc2)CCP(c2ccccc2)c2ccccc2)cc1
inactive: [4] 91 % of control | [8] 96 % of control | [11] 96 % of control

NC(=O)NC(Cc1ccccc1)(C(=O)O)c1ccccc1 (centres undefined)
inactive: [4] 103 % of control | [8] 98 % of control | [11] 103 % of control

O=C(O)CSc1cc(Cl)ccc1Cl
inactive: [12] 102 % of control | [13] 100 % of control | [14] 106 % of control and 121 % of control | [2] 104 % of control and 92 % of control | [3] 104 % of control | [6] 105 % of control | [7] 110 % of control

CC(C)Nc1ccc(C(=O)O)cc1
inactive: dose: 100.0 mg/kg/injection, schedule: Q01DX001 (ip), vehicle: Klucel (hydroxypropylcellulose) (HPC) 100 % of control | [4] 98 % of control | dose: 200.0 mg/kg/injection, schedule: Q01DX001 (ip), vehicle: Klucel (hydroxypropylcellulose) (HPC) 91 % of control | [8] 100 % of control | dose: 400.0 mg/kg/injection, schedule: Q01DX001 (ip), vehicle: Klucel (hydroxypropylcellulose) (HPC) 102 % of control | [11] 100 % of control

NC(=O)C(C(N)=O)C1CCCCc2ccccc21 (centres undefined)
inactive: dose: 100.0 mg/kg/injection, schedule: Q01DX001 (ip), vehicle: carboxymethylcellulose (CMC) 90 % of control | dose: 200.0 mg/kg/injection, schedule: Q01DX001 (ip), vehicle: carboxymethylcellulose (CMC) 106 % of control | dose: 400.0 mg/kg/injection, schedule: Q01DX001 (ip), vehicle: carboxymethylcellulose (CMC) 88 % of control
